The source made the active and inactive calls. No cut-off for these calls is given here.
Assays:
[1] = Cytotoxicity against human PC3 cells after 48 hrs by MTT assay; type: functional, cell-based; settings: PC-3, 48 h
HeLa = assay: Cytotoxicity against human HeLa cells after 48 hrs by MTT assay; type: functional, cell-based
PC-3 [2] = assay: Induction of autophagy in human PC3 cells at 100 to 300 nM after 24 hrs by acridine orange staining based fluorescence microscopy; type: functional
PC-3 [3] = assay: Induction of autophagy in human PC3 cells at 100 to 300 nM after 24 hrs by MDC staining based fluorescence microscopy; type: functional, cell-based
A549 = assay: Cytotoxicity against human A549 cells after 48 hrs by MTT assay; type: functional, cell-based; settings: A549, 48 h
PC-3 [4] = assay: Induction of autophagy in human PC3 cells assessed as increase LC3 intracellular localization at 100 nM after 24 hrs by immunocytochemistry; type: functional, cell-based
PC-3 [5] = assay: Induction of autophagy in human PC3 cells assessed as increase in punctate EGFP-LC3 pattern in autophagosomes at 100 nM after 24 hrs by fluorescence microscopy; type: functional, cell-based
PC-3 [6] = assay: Induction of autophagy in human PC3 cells assessed as increase in punctate EGFP-LC3 pattern in autophagosomes at 300 nM after 24 hrs by fluorescence microscopy; type: functional, cell-based
PC-3 [7] = assay: Induction of apoptosis in human PC3 cells assessed as caspase-3 cleavage at 300 nM after 24 hrs by Western blotting method; type: functional, cell-based
PC-3 [8] = assay: Effect on MAP1LC3 I/II protein expression in human PC3 cells at 0.2 to 0.3 uM after 24 hrs by immunoblotting method; type: functional, cell-based
PC-3 [9] = assay: Induction of autophagy in human PC3 cells at 100 to 300 nM after 24 hrs; type: functional, cell-based
PC-3 [10] = assay: Effect on SQSTM1/P62 protein expression in human PC3 cells at 0.2 to 0.3 uM after 24 hrs by immunoblotting method; type: functional, cell-based
PC-3 [11] = assay: Inhibition of Akt S473 phosphorylation in human PC3 cells at 0.1 to 0.3 uM after 24 hrs by Western blotting method; type: cell-based
PC-3 [12] = assay: Inhibition of Akt in human PC3 cells assessed as reduction in mTOR S2448 phosphorylation at 0.1 to 0.3 uM after 24 hrs by Western blotting method; type: cell-based
PC-3 [13] = assay: Induction of apoptosis in human PC3 cells at 100 to 300 nM after 24 hrs; type: functional, cell-based
PC-3 [14] = assay: Effect on Beclin-1 protein expression in human PC3 cells at 0.2 to 0.3 uM after 24 hrs by immunoblotting method; type: functional, cell-based

Row | SMILES | IC50 [1] | IC50 (HeLa) | IC50 (A549) | other results
1 | CC1(C)CCC[C@]2(C)[C@@H](CC[C@@](C)(O)/C=C/c3ccc(C(=O)O)cc3)[C@](C)(O)CC[C@@H]12 | 0.102 µM | 45.4 µM | 44.3 µM | Activity (PC-3 [2]): Active; Activity (PC-3 [3]): Active
2 | CO[C@H]1C[C@@H]2CC[C@@H](C)[C@@](O)(O2)C(=O)C(=O)N2CCCC[C@H]2C(=O)O[C@H]([C@H](C)C[C@@H]2CC[C@@H](O)[C@H](OC)C2)CC(=O)[C@H](C)/C=C(\C)[C@@H](O)[C@@H](OC)C(=O)[C@H](C)C[C@H](C)/C=C/C=C/C=C/1C |  |  |  | Activity (PC-3 [4]): inactive; Activity (PC-3 [5]): inactive
3 | Cc1ccc(C)c(/C=C/[C@](C)(O)CC[C@@H]2[C@@]3(C)CCCC(C)(C)[C@@H]3CC[C@@]2(C)O)c1 | 0.176 µM | 3.38 µM | 3.32 µM | Activity (PC-3 [2]): Active; Activity (PC-3 [3]): Active
4 | CC1(C)CCC[C@]2(C)[C@@H](CC[C@@](C)(O)/C=C/c3cncc4ccccc34)[C@](C)(O)CC[C@@H]12 | 3.9 µM | 46 µM | 45.7 µM | 
5 | CC1(C)CCC[C@]2(C)[C@@H](CC[C@@](C)(O)/C=C/c3c4ccccc4c(Br)c4ccccc34)[C@](C)(O)CC[C@@H]12 | 0.301 µM | 46 µM | 44.9 µM | 
6 | COc1cccc(OC)c1/C=C/[C@](C)(O)CC[C@@H]1[C@@]2(C)CCCC(C)(C)[C@@H]2CC[C@@]1(C)O | 4 µM | 48.2 µM | 42 µM | 
7 | COc1cccc(/C=C/[C@](C)(O)CC[C@@H]2[C@@]3(C)CCCC(C)(C)[C@@H]3CC[C@@]2(C)O)c1OC | 2.9 µM | 3.88 µM | 3.28 µM | 
8 | Cc1cccc(/C=C/[C@](C)(O)CC[C@@H]2[C@@]3(C)CCCC(C)(C)[C@@H]3CC[C@@]2(C)O)c1C | 3.5 µM | 3.7 µM | 3.8 µM | 
9 | CO/C1=C\C(C)=C\[C@@H](C)[C@@H](O)[C@@H](C)C/C(C)=C/C=C/[C@H](OC)[C@@H]([C@@H](C)[C@@H](O)[C@H](C)[C@@]2(O)C[C@@H](O)[C@H](C)[C@@H](C(C)C)O2)OC1=O |  |  |  | Activity (PC-3 [6]): inactive
10 | CC1(C)CCC[C@]2(C)[C@@H](CC[C@@](C)(O)/C=C/c3ccccc3)[C@](C)(O)CC[C@@H]12 | 0.121 µM | 3.32 µM | 3.15 µM | Activity (PC-3 [2]): Active; Activity (PC-3 [3]): Active
11 | CC1(C)CCC[C@]2(C)[C@@H](CC[C@@](C)(O)/C=C/c3ccc(Oc4ccccc4)cc3)[C@](C)(O)CC[C@@H]12 | 0.268 µM | 3.48 µM | 3.2 µM | 
12 | CC1(C)CCC[C@]2(C)[C@@H](CC[C@@](C)(O)/C=C/c3ccc(Cl)nc3)[C@](C)(O)CC[C@@H]12 | 0.275 µM | 3.68 µM | 3.28 µM | 
13 | Cc1cccc(C)c1/C=C/[C@](C)(O)CC[C@@H]1[C@@]2(C)CCCC(C)(C)[C@@H]2CC[C@@]1(C)O | 0.278 µM | 3.46 µM | 3.34 µM | 
14 | CN[C@@H]1C[C@H]2O[C@@](C)([C@@H]1OC)n1c3ccccc3c3c4c(c5c6ccccc6n2c5c31)C(=O)NC4 [STAUROSPORINE] | 0.031 µM |  |  | 
15 | CC(C)(C)c1ccc(/C=C/[C@](C)(O)CC[C@@H]2[C@@]3(C)CCCC(C)(C)[C@@H]3CC[C@@]2(C)O)cc1 | 3.8 µM | 48.5 µM | 45 µM | 
16 | CC1(C)CCC[C@]2(C)[C@@H](CC[C@@](C)(O)/C=C/c3ccc(Br)cc3)[C@](C)(O)CC[C@@H]12 | 41.3 µM | 45.9 µM | 43.2 µM | 
17 | C=C[C@](C)(O)CC[C@@H]1[C@@]2(C)CCCC(C)(C)[C@@H]2CC[C@@]1(C)O [SCLAREOL] | 0.105 µM | 3.35 µM | 3.21 µM | Activity (PC-3 [7]): Active; Activity (PC-3 [8]): inactive; Activity (PC-3 [9]): inactive; Activity (PC-3 [10]): inactive; inhibition (PC-3 [11]): Active; inhibition (PC-3 [12]): Active; Activity (PC-3 [13]): inactive; Activity (PC-3 [2]): <=5%; Activity (PC-3 [14]): inactive
18 | CC1(C)CCC[C@]2(C)[C@@H](CC[C@@](C)(O)/C=C/c3cccc([N+](=O)[O-])c3)[C@](C)(O)CC[C@@H]12 | 0.153 µM | 3.38 µM | 3.4 µM | Activity (PC-3 [2]): Active; Activity (PC-3 [3]): Active

From ChEMBL document CHEMBL3421624, “Design and Synthesis of Antitumor Heck-Coupled Sclareol Analogues: Modulation of BH3 Family Members by SS-12 in Autophagy and Apoptotic Cell Death” (J Med Chem, 2015)
